Results published in patent US9512120B2, “Microbicidally active imidazopyridine derivatives” (Syngenta Participations AG, priority 2013, dated 2016).

How the values were obtained:
[1] = tested on: Glomerella lagenarium (Colletotrichum lagenarium); experiment: Glomerella lagenarium (Colletotrichum lagenarium) / liquid culture (anthracnose); assay type: cell-based; settings: Colletotrichum orbiculare, PDB, 24° C., 3-4 days after application, read-out: control of Glomerella lagenarium (inhibition of growth, photometric)
Outline: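 Cryopreserved conidia suspended in potato dextrose broth were added to compound in DMSO applied at 200 ppm. Plates incubated at 24° C; growth inhibition read photometrically 3-4 days after application.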

Pyrenophora teres = Pyrenophora teres / barley / leaf disc preventative (net blotch); assay type: in vivo; settings: foliar, barley leaf segments cv Hasso, inoculated two days after application, assessed 5-7 days after application, read-out: control of Pyrenophora teres (disease control compared to untreated)
Outline: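 Barley cv Hasso leaf segments on agar sprayed with compound at 200 ppm, inoculated with spores two days later. Kept at 20 °C, 65% RH, 12/12 h light; disease control versus untreated scored 5-7 days after application.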

[2] = tested on: Botryotinia fuckeliana (Botrytis cinerea); experiment: Botryotinia fuckeliana (Botrytis cinerea) / liquid culture (gray mould); assay type: cell-based; settings: Vogels broth, 24° C., 3-4 days after application, read-out: control of Botryotinia fuckeliana (inhibition of growth, photometric)
Outline: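 Botrytis cinerea conidia in Vogels broth were added to test compound applied from DMSO at 200 ppm. Incubation at 24 °C; growth inhibition read photometrically 3-4 days after application.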

[3] = tested on: Mycosphaerella graminicola (Septoria tritici); experiment: Mycosphaerella graminicola (Septoria tritici) / liquid culture (Septoria blotch); assay type: cell-based; settings: Zymoseptoria tritici, PDB, 24° C., 4-5 days after application, read-out: control of Mycosphaerella graminicola (inhibition of growth, photometric)
Outline: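 Cryo-stored conidia in potato dextrose broth were added to compound in DMSO at 200 ppm in microtiter plates. Plates were incubated at 24 °C and growth inhibition was measured photometrically 4–5 days after application.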

[4] = tested on: Puccinia recondita f. sp. Tritici; experiment: Puccinia recondita f. sp. tritici / wheat / leaf disc preventative (brown rust); assay type: in vivo; settings: foliar, wheat leaf segments cv Kanzler, inoculated 1 day after application, assessed 7-9 days after application, read-out: control of Puccinia recondita f. sp. Tritici (percent disease control compared to untreated)
Outline: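 Leaf segments of wheat cv Kanzler on agar were sprayed with formulated compound at 200 ppm and inoculated with spores 1 day later. Incubation was at 19° C, 75% relative humidity and 12/12 h light/dark. Activity was scored 7-9 days after application as percent disease control versus untreated.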

[5] = tested on: Thanatephorus cucumeris (Rhizoctonia solani); experiment: Thanatephorus cucumeris (Rhizoctonia solani) / liquid culture (foot rot, damping-off); assay type: cell-based; settings: PDB, 24° C., 3-4 days after application, read-out: control of Thanatephorus cucumeris (inhibition of growth, photometric)
Outline: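 Mycelial fragments in potato dextrose broth exposed to test compounds at 200 ppm (from DMSO solution), incubated at 24° C. Growth inhibition read photometrically 3-4 days after application.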

[6] = tested on: Monographella nivalis (Microdochium nivale); experiment: Monographella nivalis (Microdochium nivale) / liquid culture (foot rot cereals); assay type: cell-based; settings: PDB, 24° C., 4-5 days after application, read-out: control of Monographella nivalis (inhibition of growth, photometric)
Outline: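 Cryostored conidia in potato dextrose broth were added to test compound dispensed from DMSO at 200 ppm. Plates were kept at 24° C, and growth inhibition was read photometrically 4-5 days after application.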

Gaeumannomyces graminis = Gaeumannomyces graminis / liquid culture (take-all of cereals); assay type: cell-based; settings: PDB, 24° C., 4-5 days after application, read-out: control of Gaeumannomyces graminis (inhibition of growth, photometric)
Outline: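 Mycelial fragments in potato dextrose broth were exposed to compound from DMSO at 200 ppm in microtiter plates. Incubation at 24 °C; growth inhibition read photometrically 4-5 days after application.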

Plasmopara viticola = Plasmopara viticola / grape / leaf disc preventative; assay type: in vivo; settings: foliar, grape vine leaf disks, inoculated 1 day after application, assessed 6-8 days after application, read-out: control of Plasmopara viticola (percent disease control compared to untreated)
[7] = tested on: Phaeosphaeria nodorum (Septoria nodorum); experiment: Phaeosphaeria nodorum (Septoria nodorum) / wheat / leaf disc preventative (glume blotch); assay type: in vivo; settings: Parastagonospora nodorum, foliar, wheat leaf segments cv Kanzler, inoculated 2 days after application, assessed 5-7 days after application, read-out: control of Phaeosphaeria nodorum (percent disease control compared to untreated)
Experimental: Phaeosphaeria nodorum (Septoria nodorum)/Wheat/Leaf Disc Preventative (Glume Blotch): Wheat leaf segments cv Kanzler were placed on agar in a 24-well plate and sprayed with formulated test compound diluted in water at an application rate of 200 ppm. The leaf disks are inoculated with a spore suspension of the fungus 2 days after application. The inoculated test leaf disks are incubated at 20° C. and 75% relative humidity under a light regime of 12/12 h (light/dark) in a climate cabinet and the activity of a compound is assessed as percent disease control compared to untreated when an appropriate level of disease damage appears in untreated check leaf disks (5-7 days after application).

[8] = tested on: Mycosphaerella arachidis (Cercospora arachidicola); experiment: Mycosphaerella arachidis (Cercospora arachidicola) / liquid culture (early leaf spot); assay type: cell-based; settings: PDB, 24° C., 4-5 days after application, read-out: control of Mycosphaerella arachidis (inhibition of growth, photometric)
Experimental: Mycosphaerella Arachidis (Cercospora arachidicola)/Liquid Culture (Early Leaf Spot): Conidia of the fungus from cryogenic storage were directly mixed into nutrient broth (PDB potato dextrose broth). After placing a DMSO solution of test compound into a 96-well microtiter plate at an application rate of 200 ppm, the nutrient broth containing the fungal spores was added. The test plates are incubated at 24° C. and the inhibition of growth was determined photometrically 4-5 days after application.

Sclerotinia sclerotiorum = Sclerotinia sclerotiorum liquid culture (cottony rot / white mold); assay type: cell-based; settings: PDB, 24° C., 3-4 days after application, read-out: control of Sclerotinia sclerotiorum (inhibition of growth, photometric)
Experimental: Sclerotinia sclerotiorum (Cottony Rot/White Mold): Mycelia fragments of a newly grown liquid culture of the fungus were directly mixed into nutrient broth (PDB potato dextrose broth). After placing a (DMSO) solution of test compound into a microtiter plate (96-well format) the nutrient broth containing the fungal material was added. The test plates are incubated at 24° C. and the inhibition of growth was determined photometrically 3-4 days after application.

Row | SMILES | melting point | inhibition at 20 ppm [1] | pest or weed control at 200 ppm (Pyrenophora teres) | inhibition at 20 ppm [2] | inhibition at 20 ppm [3] | pest or weed control at 200 ppm [4] | inhibition at 20 ppm [5] | inhibition at 20 ppm [6] | inhibition at 20 ppm (Gaeumannomyces graminis) | pest or weed control at 200 ppm (Plasmopara viticola) | pest or weed control at 200 ppm [7] | inhibition at 20 ppm [8] | inhibition at 20 ppm (Sclerotinia sclerotiorum)
1 | Nc1nc(C2CC2)nn1-c1nc2cnccc2n1C1CCCCC1 [Compound 8, 2-(1-cyclohexylimidazo[4,5-c]pyridin-2-yl)-5-cyclopropyl-1,2,4-triazol-3-amine] | 196 to 199 °C | ≥ 80% |  |  |  |  |  |  |  |  |  |  | 
2 | Nc1nc(Br)nn1-c1nc2cnccc2n1C1CCCCC1 [Compound 20, 5-bromo-2-(1-cyclohexylimidazo[4,5-c]pyridin-2-yl)-1,2,4-triazol-3-amine] | 217 to 221 °C | ≥ 80% |  |  |  |  |  |  |  |  |  |  | 
3 | CCn1c(-n2ncnc2N)nc2cncc(CCc3ccccc3)c21 [Compound 24, 2-[1-ethyl-7-(2-phenylethyl)imidazo[4,5-c]pyridin-2-yl]-1,2,4-triazol-3-amine] | 205 to 208 °C | ≥ 80% | ≥ 80% | ≥ 80% | ≥ 80% | ≥ 80% | ≥ 80% | ≥ 80% | ≥ 80% |  |  |  | 
4 | CCn1c(-n2ncnc2N)nc2cncc(Cc3ccccc3)c21 [Compound 25, 2-(7-benzyl-1-ethylimidazo[4,5-c]pyridin-2-yl)-1,2,4-triazol-3-amine] | 220 to 224 °C |  |  | ≥ 80% | ≥ 80% |  | ≥ 80% | ≥ 80% | ≥ 80% |  |  |  | 
5 | CCn1c(-n2ncnc2N)nc2cncc(-c3ccc(C)cc3)c21 [Compound 28, 2-[1-ethyl-7-(4-methylphenyl)imidazo[4,5-c]pyridin-2-yl]-1,2,4-triazol-3-amine] | 234 to 236 °C | ≥ 80% | ≥ 80% | ≥ 80% | ≥ 80% | ≥ 80% | ≥ 80% |  |  |  |  |  | 
6 | CCn1c(-n2ncnc2N)nc2cncc(-c3cccc4ccccc34)c21 [Compound 40, 2-(1-ethyl-7-naphthalen-1-ylimidazo[4,5-c]pyridin-2-yl)-1,2,4-triazol-3-amine] |  |  | ≥ 80% |  | ≥ 80% |  | ≥ 80% |  |  | ≥ 80% |  |  | 
7 | Nc1ncnn1-c1nc2cncc(Br)c2n1CC(F)(F)F [Compound 76, 2-[7-bromo-1-(2,2,2-trifluoroethyl)imidazo[4,5-c]pyridin-2-yl]-1,2,4-triazol-3-amine] | 234 to 236 °C | ≥ 80% | ≥ 80% | ≥ 80% | ≥ 80% |  | ≥ 80% |  | ≥ 80% |  | ≥ 80% |  | 
8 | Nc1ncnn1-c1nc2cncc(Br)c2n1C1CCCCC1 [Compound 112, 2-(7-bromo-1-cyclohexylimidazo[4,5-c]pyridin-2-yl)-1,2,4-triazol-3-amine] | 217 to 218 °C | ≥ 80% |  |  |  |  |  |  |  |  |  |  | 
9 | CCCn1c(-n2ncnc2N)nc2cncc(-c3ccc(Cl)cc3Cl)c21 [Compound 118, 2-[7-(2,4-dichlorophenyl)-1-propylimidazo[4,5-c]pyridin-2-yl]-1,2,4-triazol-3-amine] |  | ≥ 80% | ≥ 80% | ≥ 80% | ≥ 80% |  | ≥ 80% | ≥ 80% | ≥ 80% | ≥ 80% | ≥ 80% |  | 
10 | CCn1c(-n2ncnc2N)nc2cncc(C(C)=NOC)c21 [Compound 133] | 170 to 173 °C |  | ≥ 80% | ≥ 80% | ≥ 80% |  | ≥ 80% | ≥ 80% | ≥ 80% |  |  | ≥ 80% | 
11 | CCn1c(-n2ncnc2N)nc2cncc(C(C)=NOC(C)(C)C)c21 [Compound 140] | 171 to 175 °C | ≥ 80% | ≥ 80% | ≥ 80% | ≥ 80% | ≥ 80% | ≥ 80% |  | ≥ 80% |  |  | ≥ 80% | 
12 | CCn1c(-n2ncnc2N)nc2cncc(C(C)=NOCc3ccccc3Cl)c21 [Compound 144] |  | ≥ 80% | ≥ 80% | ≥ 80% | ≥ 80% | ≥ 80% | ≥ 80% | ≥ 80% |  | ≥ 80% | ≥ 80% |  | ≥ 80%
13 | CCn1c(-n2ncnc2N)nc2cncc(C(C)=NOCc3ccccc3OC)c21 [Compound 146] |  | ≥ 80% | ≥ 80% | ≥ 80% | ≥ 80% | ≥ 80% | ≥ 80% |  |  | ≥ 80% |  |  | 
14 | CCn1c(-n2ncnc2N)nc2cncc(/C(C)=N\OCC=C(C)C)c21 [Compound 156] |  | ≥ 80% | ≥ 80% | ≥ 80% | ≥ 80% | ≥ 80% | ≥ 80% | ≥ 80% |  | ≥ 80% | ≥ 80% |  | ≥ 80%
15 | CCn1c(-n2ncnc2N)nc2cncc(C(C)=NOCc3c(Cl)cccc3Cl)c21 [Compound 160] |  |  | ≥ 80% |  | ≥ 80% | ≥ 80% | ≥ 80% |  |  | ≥ 80% |  |  | 
16 | CCn1c(-n2ncnc2N)nc2cncc(/C(C)=N\OC(C)C)c21 [Compound 166] |  | ≥ 80% | ≥ 80% | ≥ 80% | ≥ 80% | ≥ 80% | ≥ 80% |  |  | ≥ 80% |  |  | 
17 | CCn1c(-n2ncnc2N)nc2cncc(C(C)=NOCC(F)(F)F)c21 [Compound 169] |  | ≥ 80% | ≥ 80% | ≥ 80% | ≥ 80% | ≥ 80% | ≥ 80% |  |  | ≥ 80% |  |  | 
